One data set has as its system female Balb/c mice. Put plainly: In vivo transfection efficiency and safety of luciferase mRNA lipid nanoparticles (whole-body live imaging). Conditions: tail vein injection, single dose 0.3 mpk, 6 h after administration. As for the experimental part: (§1) Luciferase mRNA was diluted in a 10-100 mM sodium citrate buffer solution at pH 4.0, with the concentration of the mRNA solution being 135 µg/ml. A mixed lipid ethanol solution was prepared at a molar ratio of ionizable cationic lipid compound (each exemplary compound) : DSPC: cholesterol : 2-[(polyethylene glycol)-2000]-N,N-ditetradecylacetamide (ALC-0159) of 50:10:38.5:1.5. The mRNA solution and the mixed lipid solution were mixed at a volume ratio of 3:1 in a nanodrug preparation device, followed by ultrafiltration to obtain luciferase mRNA lipid nanoparticles.
6-8 week-old female Balb/c mice were used to evaluate the in vivo transfection efficiency and safety of lipid nanoparticle compositions prepared from each exemplary compound. The lipid nanoparticles prepared from each exemplary compound were administered by tail vein injection at a single dose of 0.3 mpk. At specific time points after administration (e.g., 3 h, 6 h), live imaging of the animals was performed using a PerkinElmer small animal imaging system to determine the bioluminescent signal. The whole-body live imaging of mice at 3 h/6 h after intravenous administration of luciferase mRNA lipid nanoparticles prepared from Compound 1008 is shown in Fig. 2. […] Table 3 Summary of in vitro/in vivo Activity Evaluation of Lipid Nanoparticles Prepared from Compounds

Data set [1] can be described thus: Encapsulation Rate of luciferase mRNA in lipid nanoparticles (Quant-it Ribogreen RNA kit). It is filed as physicochemical. The conditions noted are these: luciferase mRNA in lipid nanoparticles prepared from the compound. As to the method:
as §1
(§2) • 1. Determination of particle size and polydispersity index (PDI): The average particle size and PDI of the nanoparticle sample solutions in the examples were determined by dynamic light scattering using Malvern ZetaSizer Nano ZS90. The measurement angle was 90°, the refractive index of the dispersant was 1.330, and the test temperature was 25°C. • 2. Zeta potential: The Zeta potential of the nanoparticle sample solutions in the examples was determined by electrophoretic light scattering (ELS) using Malvern ZetaSizer Nano ZS90. Refractive index of the dispersant: 1.330, Test temperature: 25°C. • 3. Encapsulation Rate: The Encapsulation Rate of luciferase mRNA in lipid nanoparticles was determined using a Quant-it Ribogreen RNA quantitation kit (ThermoFisher Scientific, UK) in accordance with the manufacturer's instructions.

The next data set deals with HEK 293T cells. Kind of data set: In vitro transfection efficiency of luciferase mRNA lipid nanoparticles (luciferase activity). It is filed as cell-based. Conditions: 100 ng dose, 96-well plate, 24 h incubation; luciferase mRNA lipid nanoparticles. As for the experimental part:
as §1
HEK-293T cells were used to evaluate the in vitro transfection efficiency of lipid nanoparticle compositions prepared from each exemplary compound. HEK293T cells were routinely cultured in DMEM + 10% FBS medium to ensure the cells were in the logarithmic growth phase. One day before transfection, the cells were seeded into a 96-well culture plate at an appropriate cell density and grown overnight. At the time of transfection, the cell confluency needed to reach 70-90%. The lipid nanoparticle compositions prepared from each exemplary compound were diluted into 4 different dose concentrations with DMEM and added to the 96-well cell culture plate, resulting in final concentrations of 400 ng, 200 ng, 100 ng and 50 ng per well, respectively. luciferase plasmid transfected using Lipofectamine 2000 was used as the positive control (PC). After incubation for 24 h in a 5% CO2 incubator at 37°C, the substrate was added to the wells, and the luciferase activity was determined using a microplate reader. […] The luciferase activity of the luciferase mRNA lipid nanoparticles prepared from Compound 1005 in HEK293T cells is shown in Fig. 1.

Data set [2] can be described thus: Apparent pKa of blank lipid nanoparticles by TNS fluorescence. It is filed as physicochemical. The conditions noted are these: compound:DSPC:cholesterol:ALC-0159 50:10:38.5:1.5, pH 2 to 11. As to the method:
The apparent pKa of lipid nanoparticles is correlated with the efficacy of lipid nanoparticles in delivering nucleic acids (see Jayaraman et al., Angewandte Chemie, International Edition (2012), 51(34), 8529-8533; Semple et al., Nature Biotechnology 28, 172-176 (2010)). The apparent pKa of nanoparticles prepared from different lipid compounds was determined using fluorescence based on 2-(p-toluidino)-6-naphthalenesulfonic acid (TNS). The fluorescent probe has no fluorescence in water but […] emits fluorescence when bound to lipid membranes. Blank lipid nanoparticles were prepared at a molar ratio of ionizable cationic lipid compound (each exemplary compound) : DSPC : cholesterol : 2-[(polyethylene glycol)-2000]-N,N-ditetradecylacetamide (ALC-0159) of 50:10:38.5:1.5. They were diluted in different pH buffer solutions having a pH ranging from 2 to 11. An aqueous TNS solution was added and mixed. Then, the mixtures were added to a 96-well plate (black bottom), respectively. Detection was performed with excitation wavelength at 325 nm and the emission wavelength at 435 nm, with top detection. Measurement was performed 10 times for each well, and the fluorescence intensity was recorded. A pH-fluorescence intensity curve was plotted to determine the apparent pKa.

Data set [3] can be described thus: Zeta potential by electrophoretic light scattering. It is filed as physicochemical. The conditions noted are these: luciferase mRNA lipid nanoparticles prepared from the compound; 25°C. As to the method:
as §1, §2

A short description of data set [4]: Particle size and polydispersity index (PDI) by dynamic light scattering. It is filed as physicochemical. Conditions: luciferase mRNA lipid nanoparticles prepared from the compound; 25°C. As for the experimental part: as §1, §2

For `CCCCCCCCCCCCCCCC(CC)C(=O)OCC(COC(=O)C(CC)CCCCCCCCCCCCCCC)(COC(=O)C(CC)CCCCCCCCCCCCCCC)NCCC(=O)OCCN(C)C` (centres unmarked) [Compound 1029], the “Mouse Whole-Body Average Fluorescence Signal” value in the data set with female Balb/c mice is listed as 3.27×10^4 p/s/cm^2/sr. Besides, in data set [1], the “Encapsulation Rate” value was 90.6%. In the data set with HEK 293T cells, the “HEK 293T Cell Luciferase Activity” value is 8.23×10^4 RLU. Further, the “Apparent pKa” value in data set [2] was found to be 5.41. In addition, the “Zeta Potential” value in data set [3] was -3.71 mV. In data set [4], the “Particle Size” value was found to be 77.94 nm and the “Polydispersity Index (PDI)” value came to 0.057.
For the compound `CCCCCCCCCC(CCCCCCCC)C(=O)OCC(COC(=O)C(CCCCCCCC)CCCCCCCCC)(COC(=O)C(CCCCCCCC)CCCCCCCCC)NCCOCCN(C)C` (centres unmarked) [Compound 1059], the “Mouse Whole-Body Average Fluorescence Signal” value in the data set on female Balb/c mice is listed as 4.94×10^5 p/s/cm^2/sr. The “Encapsulation Rate” value in data set [1] came to 93.0%. For the same compound, the “HEK 293T Cell Luciferase Activity” value in the data set with HEK 293T cells is on record as 1.32×10^4 RLU. The “Apparent pKa” value in data set [2] was found to be 5.18. In addition, the “Zeta Potential” value in data set [3] is given as -10.0 mV. Moreover, in data set [4], the “Particle Size” value worked out at 72.71 nm and the “Polydispersity Index (PDI)” value was 0.067.
Take `CCCCCCCCCCCCCCCC(CC)C(=O)OCC(COC(=O)C(CC)CCCCCCCCCCCCCCC)(COC(=O)C(CC)CCCCCCCCCCCCCCC)NC(=O)CCCCN(C)CCCCO` (centres unmarked) [Compound 1113]: the “Mouse Whole-Body Average Fluorescence Signal” value with female Balb/c mice is recorded as 3.56×10^7 p/s/cm^2/sr. Also, the “Encapsulation Rate” value in data set [1] amounted to 100.3%. In addition, the “HEK 293T Cell Luciferase Activity” value in the data set on HEK 293T cells is 3.43×10^4 RLU. In addition, the “Apparent pKa” value in data set [2] amounted to 5.91. Also, the “Zeta Potential” value in data set [3] came to 4.57 mV. Further, in data set [4], the “Particle Size” value was 58.00 nm and the “Polydispersity Index (PDI)” value is given as 0.082.
`CCCCCCCCCC(CCCCCCCC)C(=O)OCC(COC(=O)C(CCCCCCCC)CCCCCCCCC)(COC(=O)C(CCCCCCCC)CCCCCCCCC)NCCC(=O)NCCN(C)CCCCO` (centres unmarked) [Compound 1118]: the “Mouse Whole-Body Average Fluorescence Signal” value with female Balb/c mice is recorded as 1.77×10^8 p/s/cm^2/sr. For the same compound, the “Encapsulation Rate” value in data set [1] was found to be 95.9%. Further, the “HEK 293T Cell Luciferase Activity” value in the data set on HEK 293T cells is given as 1.48×10^4 RLU. Moreover, the “Apparent pKa” value in data set [2] is recorded as 5.11. Moreover, the “Zeta Potential” value in data set [3] is given as -3.96 mV. Besides, in data set [4], the “Particle Size” value amounted to 108.1 nm and the “Polydispersity Index (PDI)” value was 0.051.
In the case of `CCCCCCCCCC(CCCCCCCC)C(=O)OCC(COC(=O)C(CCCCCCCC)CCCCCCCCC)(COC(=O)C(CCCCCCCC)CCCCCCCCC)NCCCCCCN(C)CCCCO` (centres unmarked) [Compound 1120], the “Mouse Whole-Body Average Fluorescence Signal” value in the data set on female Balb/c mice is 3.52×10^8 p/s/cm^2/sr. In addition, the “Encapsulation Rate” value in data set [1] came to 97.2%. The “HEK 293T Cell Luciferase Activity” value in the data set with HEK 293T cells is 2.35×10^4 RLU. Also, the “Apparent pKa” value in data set [2] turned out to be 6.14. Further, the “Zeta Potential” value in data set [3] was -6.05 mV. In data set [4], the “Particle Size” value was determined as 98.18 nm and the “Polydispersity Index (PDI)” value is listed as 0.049.

For the origin of these results see patent publication EP4775567A1, “IONIZABLE CATIONIC LIPID COMPOUNDS AS WELL AS PREPARATION METHOD THEREFOR AND USE THEREOF” (Scindy Pharmaceutical (Suzhou) Co., Ltd, priority 2023, dated 2025).
